The target of one data set is T1, EP1 receptor (Homo sapiens, UniProt P34995).
T1 construct: expressed in transfected cells
T1 sequence (P34995 1-402): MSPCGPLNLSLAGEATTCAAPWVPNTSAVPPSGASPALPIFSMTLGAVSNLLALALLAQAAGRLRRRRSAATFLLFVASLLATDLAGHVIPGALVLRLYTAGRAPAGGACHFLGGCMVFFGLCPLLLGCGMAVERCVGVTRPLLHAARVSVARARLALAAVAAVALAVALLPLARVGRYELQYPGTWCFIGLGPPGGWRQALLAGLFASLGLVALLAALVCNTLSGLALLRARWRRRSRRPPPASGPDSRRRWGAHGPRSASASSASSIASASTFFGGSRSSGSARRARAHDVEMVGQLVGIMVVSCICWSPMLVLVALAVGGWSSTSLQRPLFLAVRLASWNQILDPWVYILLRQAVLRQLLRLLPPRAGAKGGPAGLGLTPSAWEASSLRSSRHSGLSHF
Put plainly: Assay for binding to prostaglandin E2 receptors (3H-PGE2 displacement), EP1. Conditions: read-out: IC50 at EP1 receptor subtype. As to the method:
(§1) Membrane Preparation: All operations are performed at 4° C. Transfected cells expressing prostagiandin E2 type 1 receptors (EP1), type 2 (EP2), type 3 (EP3) or type 4 (EP4) receptors are harvested and suspended to 2 million cells per ml in Buffer A [50 mM Tris-HCl (pH 7.4), 10 mM MgCl2, 1 mM EDTA, 1 mM Pefabloc peptide, (Boehringer Mannheim Corp., Indianapolis, Ind.), 10 uM Phosporamidon peptide, (Sigma, St. Louis, Mo.), 1 uM pepstatin A peptide, (Sigma, St. Louis, Mo.), 10 uM elastatinal peptide, (Sigma, St. Louis, Mo.), 100 uM antipain peptide, (Sigma, St. Louis, Mo.)]. The cells are lysed by sonification with a Branson Sonifier (Model #250, Branson Ultrasonics Corporation, Danbury, Conn.) in 2 fifteen second bursts. Unlysed cells and debris are removed by centrifugation at 100×g for 10 min. […] Pelleted membranes are resuspended to 3-10 mg of protein per ml of Buffer A, the protein concentration being determined by the method of Bradford [Bradford, M., Anal. Biochem., 72, 248 (1976)]. […]
(§2) Binding Assay: Frozen membranes prepared as above are thawed and diluted to 0.5 mg/ml (for rat EP2) or 0.3 mg/ml (for rat EP4) in Buffer A above. […] To determine the amount of ^3H-prostaglandin bound to the membranes, the dried filters are placed into plastic bags with scintillation fluid and counted in a LKB 1205 Betaplate reader (Wallac, Gaithersburg, Md.). […]

A further data set has as its system OVX rat model. Put plainly: Bone mass restoration in OVX rat model (femoral DEXA). The format is in vivo. To be noted: subcutaneous 30 mg/kg/day for 28 days. How it is done: The purpose of this study is to determine whether an EP4 receptor selective agonist, and specifically 7-(2-(3-hydroxy-4-phenyl-butyl)-5-oxo-pyrrolidin-1-yl)-heptanoic acid, can restore bone mass in OVX rat model.
Sprague-Dawley […] rats were ovariectomized (OVX) at 3.5 months of age. Ten months after OVX, the rats were treated by subcutaneous injection with vehicle or 7-(2-(3-hydroxy-4-phenyl-butyl)-5-oxo-pyrrolidin-1-yl)-heptanoic acid at 30 mg/kg/day for 28 days. The rats were autopsied. The right femur from each rat was removed at autopsy and scanned using dual energy x-ray absorptiometry (DEXA, QDR 1000/W, Hologic Inc., Waltham, Mass.) equipped with “Regional High Resolution Scan” software (Hologic Inc., Waltham, Mass.). The scan field size was 5.08×1.902 cm, resolution is 0.0254×0.0127 cm and the scan speed was 7.25 mm/second. The femoral scan images were analyzed. Bone mineral content (BMC) and bone mineral density (BMD) of whole femora (WF), distal femoral metaphysis (DFM), and femoral shaft (FS) were determined according to the method described in H. Z. Ke et al., Droloxifene, a New Estrogen Antagonist/Agonist, Prevents Bone Loss in Ovariectomized Rats. ENDOCRINOLOGY 136;2435-2441, 1995.

The target in another data set is T2, EP2 receptor (Rattus norvegicus, UniProt Q62928).
T2 construct: expressed in transfected cells
T2 sequence (Q62928 whole entry): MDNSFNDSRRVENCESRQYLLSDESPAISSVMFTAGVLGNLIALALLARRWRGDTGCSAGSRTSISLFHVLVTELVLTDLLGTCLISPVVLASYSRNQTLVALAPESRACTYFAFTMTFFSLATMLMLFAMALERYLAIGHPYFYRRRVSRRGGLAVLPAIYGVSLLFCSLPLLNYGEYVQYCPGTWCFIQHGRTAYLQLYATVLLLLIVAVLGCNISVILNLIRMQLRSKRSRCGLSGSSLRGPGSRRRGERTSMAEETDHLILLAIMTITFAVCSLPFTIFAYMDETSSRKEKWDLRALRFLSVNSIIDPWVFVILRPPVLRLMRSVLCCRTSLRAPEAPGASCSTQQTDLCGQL
In words: Assay for binding to prostaglandin E2 receptors (3H-PGE2 displacement), EP2. Conditions: read-out: IC50 at EP2 receptor subtype. How it is done: as §1, §2

The target of the next data set is T3, EP4 receptor (Rattus norvegicus, UniProt P43114).
T3 construct: expressed in transfected cells
T3 sequence (P43114 whole entry): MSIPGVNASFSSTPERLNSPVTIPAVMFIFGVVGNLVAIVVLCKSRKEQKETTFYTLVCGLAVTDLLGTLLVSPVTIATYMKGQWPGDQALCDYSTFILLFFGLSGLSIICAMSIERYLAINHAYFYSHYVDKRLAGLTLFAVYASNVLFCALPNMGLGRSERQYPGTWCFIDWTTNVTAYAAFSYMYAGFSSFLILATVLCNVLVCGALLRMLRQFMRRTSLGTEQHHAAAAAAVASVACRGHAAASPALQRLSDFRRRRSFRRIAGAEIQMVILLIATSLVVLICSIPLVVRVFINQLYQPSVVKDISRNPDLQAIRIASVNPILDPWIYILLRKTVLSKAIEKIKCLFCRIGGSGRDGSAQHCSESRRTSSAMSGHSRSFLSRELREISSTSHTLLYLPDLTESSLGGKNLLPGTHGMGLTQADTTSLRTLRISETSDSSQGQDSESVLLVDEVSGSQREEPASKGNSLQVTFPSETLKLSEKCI
In words: Assay for binding to prostaglandin E2 receptors (3H-PGE2 displacement), EP4. How it is done: as §1, §2

Another data set has as its target T4, EP3 receptor (Homo sapiens, UniProt P43115).
T4 construct: expressed in transfected cells
T4 sequence (P43115 1-390): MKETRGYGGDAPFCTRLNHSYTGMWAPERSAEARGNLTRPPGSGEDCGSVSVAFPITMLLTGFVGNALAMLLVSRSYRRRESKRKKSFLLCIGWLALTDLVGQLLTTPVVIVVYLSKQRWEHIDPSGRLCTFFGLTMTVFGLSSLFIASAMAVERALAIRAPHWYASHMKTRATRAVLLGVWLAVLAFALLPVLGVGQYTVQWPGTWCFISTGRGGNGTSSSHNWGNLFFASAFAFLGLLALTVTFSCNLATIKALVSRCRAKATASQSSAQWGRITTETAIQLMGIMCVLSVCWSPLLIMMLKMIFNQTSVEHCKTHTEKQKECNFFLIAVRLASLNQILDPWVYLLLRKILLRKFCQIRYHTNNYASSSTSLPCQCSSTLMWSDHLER
Put plainly: Assay for binding to prostaglandin E2 receptors (3H-PGE2 displacement), EP3. Conditions: read-out: IC50 at EP3 receptor subtype. As to the method: as §1, §2

[1] abbreviates: OVX rats, compared with OVX rats treated with vehicle.

The term IC50 denotes the concentration needed to halve the response being measured. Take `O=C(O)CCCCCCN1C(=O)CCC1CCC(O)Cc1ccccc1` (stereo not drawn) [7-(2-(3-hydroxy-4-phenyl-butyl)-5-oxo-pyrrolidin-1-yl)-heptanoic acid]: at EP1 receptor, the IC50 is greater than 3.2 µM. Further, in the data set with OVX rat model (OVX rats), the PGE2-like side effects result is on record as “No PGE2-like side effects were seen”. In the data set with OVX rat model (setting [1]), the “distal femoral BMC increased” value came out at 8%, the “distal femoral BMD increased” value is listed as 8%, the “femoral shaft BMC increased” value is on record as 20% and the “femoral shaft BMD increased” value is listed as 18%. In the data set with OVX rat model (setting [1]), the “total femoral BMC increased” value came to 17% and the “total femoral BMD increased” value is 13%. Also, in the data set on OVX rat model, the “bone formation and bone restoration in established osteopenic OVX rats” value was “stimulates bone formation and restores bone”. The IC50 at EP2 receptor is greater than 3.2 µM. The IC50 on EP4 receptor was 0.016 µM. Moreover, the IC50 at EP3 receptor was greater than 3.2 µM.

The values are drawn from patent publication US6642266B2, “EP4 receptor selective agonists in the treatment of osteoporosis” (Pfizer Inc., priority 1999, dated 2003).
